The results in this text go back to paper PMC2952445 (The journal of pain : official journal of the American Pain …, 2009).

Molecules are shown by their SMILES.

This test concerns the target mu opioid peptide (MOP) receptor (mouse brain) (Mus musculus, UniProt P42866).

mu opioid peptide (MOP) receptor (mouse brain), sequence (P42866 whole entry): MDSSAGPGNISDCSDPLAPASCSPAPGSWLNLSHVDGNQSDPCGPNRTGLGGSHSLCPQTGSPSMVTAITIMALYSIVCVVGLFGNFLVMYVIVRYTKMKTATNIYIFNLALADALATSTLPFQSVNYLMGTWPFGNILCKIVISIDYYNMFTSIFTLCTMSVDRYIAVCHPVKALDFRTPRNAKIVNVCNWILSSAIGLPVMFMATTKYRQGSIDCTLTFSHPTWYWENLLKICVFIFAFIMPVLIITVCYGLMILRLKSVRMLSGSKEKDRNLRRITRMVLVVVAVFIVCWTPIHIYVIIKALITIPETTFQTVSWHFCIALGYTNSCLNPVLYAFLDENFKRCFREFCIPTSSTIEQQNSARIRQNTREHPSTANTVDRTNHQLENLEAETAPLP

`CCC(=O)C(CC(C)N(C)C)(c1ccccc1)c1ccccc1` (stereo not shown) [methadone]: the IC50 came to 11.7 ± 1.2 nM.
